Assay results as given in patent US6872805B2 (Bristol-Myers Squibb Company, priority 2000, dated 2005).

Columns and labels:
[1] = tested on: HCV replicon in Huh7 cells; experiment: HCV replicon cell-based assay; design: species or system HCV strain 1B; conditions: Hepatitis C virus, Huh-7, 96 h; HCV replicon, Huh7 cells, 4 days; activity ranges; read-out: EC50
Text: An HCV replicon whole cell system was established as described by Lohmann V, Korner F, Koch J, Herian U, Theilmann L, Bartenschlager R., Science 285(5424):110-3 (1999). This system enabled us to evaluate the effects of our HCV Protease compounds on HCV RNA replication. Briefly, using the HCV strain 1B sequence described in the Lohmann paper (Assession number:AJ238799), an HCV cDNA was generated encoding the 5′ internal ribosome entry site (IRES), the neo gene, the EMCV-IRES and the HCV nonstructural proteins, NS3-NS5B, and 3′ NTR. […] Resulting cell lines were characterized for positive and negative RNA production and protein production over time.
Huh7 cells, constitutively expressing the HCV replicon, were grown in DMEM containing 10% FCS (Fetal calf serum) and 1 mg/ml G418 (Gibco-BRL). Cells were seeded the night before (1.5×10^4 cells/well) in 96-well tissue-culture sterile plates. Compound was prepared in DMEM containing 4% FCS, 1:100 Penicillin/Streptomysin, 1:100 L-glutamine and 0.5% DMSO. Compound/DMSO mixes were added to the cells and incubated for 4 days at 37° C. After 4 days, cells were either lyzed using the Rneasy kit (Qiagen) to isolate and purify RNA for an EC50 determination or assessed for cytotoxicity using alamar Blue (Trek Diagnotstic Systems) for a CC50 reading. For an EC50 determination, purified total RNA was normalized using RiboGreen (Jones L J, Yue S T, Cheung C Y, Singer V L, Anal. Chem., 265(2):368-74 (1998)) and relative quantitation of HCV RNA expression assessed using the Taqmann procedure (Kolykhalov A A, Mihalik K, Feinstone S M, Rice C M, Journal of Virology 74, 2046-2051 (2000)). Briefly, RNA made to a volume of 5 μl (≦1 ng) was added to a 20 μl Ready-Mix containing the following: 5×EZ rTth buffer, 3 mM MnOAc2, 3 mM dNTPs, 200 nM forward primer, 600 nM reverse primer, 100 nM probe and rTth polymerase. Samples containing known concentrations of HCV RNA transcript were run as standards. Using the following cycling protocol (95° C., 1 min; 60° C., 0.5 min; 95° C., 2 min; 40 cycles of 94° C., 0.5 min, 60° C.; 1 min; and completing with 60° C., 10 min), HCV RNA expression was quantitated as described in the Perkin Elmer manual. The toxicity of compound (CC50) was determined by adding 1/10th volume of alamar Blue to the media incubating the cells. After 4 hr, the fluorescence signal from each well was read, with an excitation wavelength at 530 nm and an emission wavelength of 580 nm, using the Cytofluor Series 4000 (Perspective Biosystems).

[2] = biological target: HCV NS3/4A protease complex (Hepatitis C virus genotype 1a, UniProt P27958, C1454S/C1711G); experiment: Recombinant HCV NS3/4A protease complex FRET peptide assay (strain not stated); format: biochemical; conditions: IC50, NS3/4A protease enzyme assay, strain not stated; activity ranges
Text: The purpose of this in vitro assay was to measure the inhibition of HCV NS3 protease complexes, derived from the BMS, H77C or J416S strains, as described below, by compounds of the present invention.
Serum from an HCV-infected patient was obtained from Dr. T. Wright, San Francisco Hospital. An engineered full-length cDNA template of the HCV genome (BMS strain) was constructed from DNA fragments obtained by reverse transcription-PCR (RT-PCR) of serum RNA and using primers selected on the basis of homology between other genotype 1a strains. […] The infectious clones, H77C (1a genotype) and J4L6S (1b genotype) were obtained from R. Purcell (NIH) and the sequences are published in genebank (AAB67036, see Yanagi, M., Purcell, R. H., Emerson, S. U. and Bukh, J. Proc. Natl. Acad. Sci. U.S.A. 94(16),8738-8743 (1997); AF054247, see Yanagi, M., St Claire, M., Shapiro, M., Emerson, S. U., Purcell, R. H. and Bukh, J, Virology 244 (1), 161-172. (1998)).
The BMS, H77C and J4L6S strains were used for production of recombinant NS3/4A protease complexes. DNA encoding the recombinant HCV NS3/4A protease complex (amino acid 1027 to 1711) for these strains were manipulated as described by P. Gallinari et al. (see Gallinari P, Paolini C, Brennan D, Nardi C, Steinkuhler C, De Francesco R. Biochemistry. 38(17):5620-32, (1999)). Briefly, a three-lysine solubilizing tail was added at the 3′-end of the NS4A coding region. The cysteine in the P1 position of the NS4A-NS4B cleavage site (amino acid 1711) was changed to a glycine to avoid the proteolytic cleavage of the lysine tag. Furthermore, a cysteine to serine mutation was introduced by PCR at amino acid position 1454 to prevent the autolytic cleavage in the NS3 helicase domain. The variant DNA fragment was cloned in the pET21b bacterial expression vector and the NS3/4A complex was expressed in E. coli BL21 (DE3) following the protocol described by P. Gallinari et al. (see Gallinari P, Brennan D, Nardi C, Brunetti M, Tomei L, Steinkuhler C, De Francesco R., J Virol. 72(8):6758-69 (1998)) with modifications. Briefly, NS3/4A expression was induced with 0.5 mM IPTG for 22 hr at 20° C. […] The cells were resuspended in lysis buffer (10 mL/g) consisting of 25 mM HEPES, pH 7.5, 20% glycerol, 500 mM NaCl, 0.5% Triton-X100, 1 ug/ml lysozyme, 5 mM MgCl2, 1 ug/ml DNaseI 5 mM β-Mercaptoethanol (βME), Protease inhibitor—EDTA free, homogenized and incubated for 20 mins at 4° C. The homogenate was sonicated and clarified by ultra-centrifugation at 235000 g for 1 hr at 4° C. Imidazole was added to the supernatant to a final concentration of 15 mM and the pH adjusted to 8.0. The crude protein extract was loaded on a Ni-NTA column pre-equilibrated with buffer B (25 mM HEPES, pH 8.0, 20% glycerol, 500 mM NaCl, 0.5% Triton-X100, 15 mM imidazole, 5 mM βME). The sample was loaded at a flow rate of 1 mL/min. The column was washed with 15 column volumes of buffer C (same as buffer B except with 0.2% Triton-X100). The protein was eluted with 5 column volumes of 200 mM Imidazole in buffer.
NS3/4A protease complex-containing fractions were pooled and loaded on a desalting column Superdex-S200 pre-equilibrated with buffer D (25 mM HEPES, pH 7.5, 20% glycerol, 300 mM NaCl, 0.2% Triton-X100, 10 mM βME). Sample was loaded at a flow rate of 1 mL/min. NS3/4A protease complex-containing fractions were pooled and concentrated to approximately 0.5 mg/ml.

Chain of HCV NS3/4A protease complex (P27958 1027-1711, stated change not applied): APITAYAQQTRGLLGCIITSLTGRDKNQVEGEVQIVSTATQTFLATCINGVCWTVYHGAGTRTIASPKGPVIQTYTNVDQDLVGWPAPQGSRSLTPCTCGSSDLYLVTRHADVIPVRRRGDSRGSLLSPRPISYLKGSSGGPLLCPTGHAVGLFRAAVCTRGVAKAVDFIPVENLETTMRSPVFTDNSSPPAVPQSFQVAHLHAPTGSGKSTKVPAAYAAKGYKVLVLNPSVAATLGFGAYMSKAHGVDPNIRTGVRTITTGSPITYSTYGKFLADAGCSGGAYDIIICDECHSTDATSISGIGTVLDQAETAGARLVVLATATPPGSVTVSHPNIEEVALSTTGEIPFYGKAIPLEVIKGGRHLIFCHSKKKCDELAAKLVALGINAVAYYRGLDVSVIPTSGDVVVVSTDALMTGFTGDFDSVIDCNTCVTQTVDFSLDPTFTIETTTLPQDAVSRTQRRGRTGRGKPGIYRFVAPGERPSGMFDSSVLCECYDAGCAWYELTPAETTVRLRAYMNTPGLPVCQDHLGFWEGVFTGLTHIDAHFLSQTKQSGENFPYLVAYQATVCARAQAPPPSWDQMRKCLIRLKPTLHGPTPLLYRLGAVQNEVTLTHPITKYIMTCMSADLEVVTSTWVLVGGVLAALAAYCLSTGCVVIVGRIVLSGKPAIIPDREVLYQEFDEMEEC
Chain of HCV NS3/4A protease complex (P27958 1027-1711, stated change not applied): as above

SMILES	EC50 [1]	IC50 [2]
C=CC1C[C@]1(NC(=O)[C@@H]1C[C@@H](Oc2cc(-c3ccccc3)nc3cc(OC)ccc23)CN1C(=O)[C@@H](NC(=O)OC(C)(C)C)C(C)(C)C)C(=O)NS(=O)(=O)CC1CCC1 (stereo in doubt) [Compound 15, {1-[2-(1-Cyclobutylmethanesulfonylaminocarbonyl-2-vinylcyclopropylcarbamoyl)-4-(7-methoxy-2-phenylquinolin-4-yloxy)pyrrolidine-1-carbonyl]-2,2-dimethylpropyl}-carbamic acid tert-butyl ester]	< 5000 nM	< 500 nM
C=CC1C[C@]1(NC(=O)[C@@H]1C[C@@H](Oc2cc(-c3ccccc3)nc3cc(OC)ccc23)CN1C(=O)[C@@H](NC(=O)OC(C)(C)C)C(C)(C)C)C(=O)NS(=O)(=O)CC1CC1 (stereo in doubt) [Compound 16, {1-[2-(1-Cyclopropylmethanesulfonylaminocarbonyl-2-vinylcyclopropylcarbamoyl)-4-(7-methoxy-2-phenylquinolin-4-yloxy)pyrrolidine-1-carbonyl]-2,2-dimethylpropyl}-carbamic acid tert-butyl ester]	< 500 nM	< 500 nM
C=CC1C[C@]1(NC(=O)[C@@H]1C[C@@H](Oc2cc(-c3ccccc3)nc3cc(OC)ccc23)CN1C(=O)[C@@H](NC(=O)NC(C)(C)C)C(C)(C)C)C(=O)NS(=O)(=O)C1CC1 (stereo in doubt) [Compound 19, 1-[2-(3-tert-Butylureido)-3,3-dimethylbutyryl]-4-(7-methoxy-2-phenylquinolin-4-yloxy)pyrrolidine-2-carboxylic acid (1-cyclopropanesulfonylaminocarbonyl-2-vinylcyclopropyl)amide]	< 50 nM	< 50 nM
C=CC1C[C@]1(NC(=O)[C@@H]1C[C@@H](Oc2cc(-c3ccccc3)nc3cc(OC)ccc23)CN1C(=O)[C@@H](NC(=O)N(CCC(F)(F)F)CC1CC1)C(C)(C)C)C(=O)NS(=O)(=O)C1CC1 (stereo in doubt) [Compound 20, 1-{2-[3-Cyclopropylmethyl-3-(3,3,3-trifluoropropyl)-ureido]-3,3-dimethylbutyryl}-4-(7-methoxy-2-phenyl-quinolin-4-yloxy)-pyrrolidine-2-carboxylic acid (1-cyclopropanesulfonylaminocarbonyl-2-vinyl-cyclopropyl)amide]	< 500 nM	< 50 nM
CCC1C[C@]1(NC(=O)[C@@H]1C[C@@H](Oc2cc(-c3ccccc3)nc3cc(OC)ccc23)CN1C(=O)[C@@H](NC(=O)OC1CCCC1)C(C)C)C(=O)NS(=O)(=O)C1CC1 (stereo partly drawn) [Compound 6]	< 50 nM	< 50 nM
CCOC(=O)N[C@H](C(=O)N1C[C@H](Oc2cc(-c3ccccc3)nc3cc(OC)ccc23)C[C@H]1C(=O)N[C@]1(C(=O)NS(=O)(=O)C2CC2)CC1CC)C(C)C (stereo partly drawn) [Compound 7]	< 500 nM	< 50 nM
CCC1C[C@]1(NC(=O)C1C[C@@H](Oc2cc(-c3ccccc3)nc3cc(OC)ccc23)CN1C(=O)[C@@H](NC(=O)OCCF)C(C)C)C(=O)NS(=O)(=O)C1CC1 (stereo partly drawn) [Compound 9]	< 500 nM	< 50 nM
C=CC1C[C@]1(NC(=O)[C@@H]1C[C@@H](Oc2cc(-c3ccccc3)nc3cc(OC)ccc23)CN1C(=O)[C@@H](NC(=O)OC(C)(C)C)C(C)(C)C)C(=O)NS(=O)(=O)c1ccc(Br)cc1 (stereo partly drawn) [Compound 17]	< 500 nM	< 500 nM
C=CC1C[C@]1(NC(=O)[C@@H]1C[C@@H](Oc2cc(-c3ccccc3)nc3cc(OC)ccc23)CN1C(=O)[C@@H](NC(=O)O[C@H]1CCOC1)C(C)(C)C)C(=O)NS(=O)(=O)C1CC1 (stereo partly drawn) [Compound 18, {1-[2-(1-Cyclopropanesulfonylaminocarbonyl-2-vinylcyclopropylcarbamoyl)-4-(7-methoxy-2-phenyl-quinolin-4-yloxy)-pyrrolidine-1-carbonyl]-2,2-dimethyl-propyl}carbamic acid tetrahydrofuran-3(S)-yl ester]	< 50 nM	< 50 nM
COc1ccc2c(O[C@@H]3CC(C(=O)NC4(C(=O)NS(=O)(=O)C5CC5)CC4)N(C(=O)[C@@H](NC(=O)OC(C)(C)C)C(C)C)C3)cc(-c3ccccc3)nc2c1 (stereo partly drawn) [Compound 21]	< 5000 nM	< 50 nM
COc1ccc2c(O[C@@H]3C[C@@H](C(=O)NC4(C(=O)NS(=O)(=O)C5CC5)CCC4)N(C(=O)[C@@H](NC(=O)OC(C)(C)C)C(C)(C)C)C3)cc(-c3ccccc3)nc2c1 [Compound 22]	< 500 nM	< 50 nM
C=CC1C[C@]1(NC(=O)[C@@H]1C[C@@H](Oc2cc(-c3ccccc3)nc3cc(OC)ccc23)CN1C(=O)[C@@H](NC(=O)OC(C)(C)C)C(C)(C)C)C(=O)NS(=O)(=O)CCCC (stereo partly drawn) [Compound 23]	< 500 nM	< 50 nM
C=CC1C[C@]1(NC(=O)[C@@H]1C[C@@H](Oc2cc(-c3ccccc3)nc3cc(OC)ccc23)CN1C(=O)[C@@H](NC(=O)OC(C)(C)C)C(C)CC)C(=O)NS(=O)(=O)C1CC1 (stereo partly drawn) [Compound 24]	< 500 nM	< 500 nM
C=CC1C[C@]1(NC(=O)[C@@H]1C[C@@H](Oc2cc(-c3ccccc3)nc3cc(OC)ccc23)CN1C(=O)[C@@H](NC(=O)OC(C)(C)C)C(C)(C)C)C(=O)NS(=O)(=O)CC (stereo partly drawn) [Compound 25]	< 500 nM	< 50 nM
C=CC1C[C@]1(NC(=O)[C@@H]1C[C@@H](Oc2cc(-c3ccccc3)nc3cc(OC)ccc23)CN1C(=O)[C@@H](NC(=O)OC(C)(C)C)C(C)(C)C)C(=O)NS(=O)(=O)CCC (stereo partly drawn) [Compound 26]	< 500 nM	< 50 nM
